Measurements published in patent US11434205B2, “Substituted imidazole carboxylate derivatives and the use thereof” (priority 2018, dated 2022).
Where two headings read alike, the source gives them in different places.

Columns and labels:
rats [1] = test: Loss of righting reflexes (LORR) assay in rats, ED50 by up and down method; format: in vivo, rat; conditions: Rattus norvegicus, tail vein, class symbols
Protocol: The Anesthetic Activity of the Compounds was Assessed in Rats Using a Loss of Righting Reflexes (LORR) Assay
(§1) Adult male Sprague-Dawley rats (250-300 g) were selected for the experiment. […] The anesthesia effects of the compounds were assessed in rats using a LORR assay and a period >30 s was considered as an indicator of general anesthesia. Then the up and down method was used to determine 50% effective dose (ED50). The drugs were administered through the tail vein of rats in a volume of 0.6 mL and at a rate of 0.1 mL/s.

rats [2] = test system: rats
Protocol: as §1

rats [3] = test: Pharmacological characteristics at equivalent doses (2×ED50) in rats; conditions: 2×ED50, tail vein; for Adverse reactions: Red urine (incidence): DMSO solution (DMSO alone 10/10); for Onset time: time of LORR
Protocol: Comparison of Pharmacological Characteristics of the Compounds at Equivalent Doses (2×ED50) in Rats
Adult male Sprague-Dawley rats (250-300 g) were selected for the experiment (n=8). […] The drugs were administered at a dose twice their ED50 through the tail vein of rats in a volume of 0.6 mL and at a rate of 0.1 mL/s. In addition, the time of LORR was recorded as the onset time of anesthesia. […] Furthermore, the duration of the pharmacological effects is sufficient to meet the time requirements for rapid induction of general anesthesia and for diagnostic examinations, some short invasive clinical examinations, or operations.

[4] = test system: secretion of corticosterone, H295R cell line; test: cells; format: cell-based; conditions: for EC50: read-out: EC50 (Corticosterone)
Protocol: (§2) The Effects of the Compounds on Adrenocortical Function In Vitro Test
(§3) Then secretion of the cortisol and corticosterone in the supernatant, was measured using HPLC-MS/MS method to determine whether the compounds of the present invention had adrenotoxic potential.

[5] = test system: secretion of cortisol, H295R cell line; test: cells; format: cell-based; conditions: for EC50: read-out: EC50 (Cortisol)
Protocol: as §2, §3

rats [6] = format: in vivo, rat; conditions: rats of the MAP/HR figures, 2×ED50, tail vein; same value in min
Protocol: The Effects of the Compounds on the Circulatory Function were Measured in Rats Using a Small Animal Implanted Physiological Signal Telemetry System
The anesthetic activity of the compounds was assessed in rats using a LORR assay and the up and down method was used to determine ED50. […] A small animal implantable physiological signal telemetry system from DSI (Data Science International, Inc.) was used to measure the changes in heart rate (HR) and blood pressure in rats during 30 min after administration. Then mean arterial pressure (MAP) and HR were used as representative indicators to determine hemodynamic stability of the compounds of the present invention in rats.
A small animal implantable physiological signal telemetry system from DSI (Data Science International, Inc.) including implants (RATHD-521, DSI, United States), receiver boards (RPC-1, DSI, United States), signal conversion devices (DEM, DSI, USA), perfusion glue (DSI, USA), fibrin membrane (DSI, USA), etc.
First, animal models were established. A left ventricular catheter, an abdominal aortic catheter and ECG wires were placed into rats. At least one week after surgery, data were recorded.
Administration procedure: rats were put into a restraint device with a 20 G indwelling catheter placed into a lateral tail vein. After administration of 0.2 mL heparin, a pre-filled extension tube was attached and taped to the tail vein to secure the extension tube. Then the rats were removed from the restraint device to a cage before placing them together on the signal receiver. […] Finally, the pharmacological effects, adverse reactions, and behavioural manifestations of the rats were observed and recorded
Data collection: After setting the data collection parameters on the software, the power of the implant was turned on to start data collection. In this experiment, data recording frequency was set to 15 s. Data collection was continuously recorded for 30 min before and after administration of the drugs in rats. After data acquisition, the test was stopped.

rats [7] = test system: rats; remark: listed apart in the source
Protocol: Pharmacological Effects of the Compounds on Continuous Infusion in Rats
Adult male Sprague-Dawley rats with body weight ranging from 250 to 300 gm were selected for continuous infusion test. […] Time to recovery of righting reflex from stopping infusion, and time to fully awake from stopping infusion were recorded.

rats [8] = format: in vivo, rat; conditions: rats of the MAP/HR figures, 2×ED50, tail vein
[9] = H295R cell line, 0.1-10000 nM, HPLC-MS/MS, Table D3
[10] = continuous tail vein infusion at 2×MIR, LORR maintained 1 hour, Table D4
[11] = emulsion, continuous infusion at 2×MIR
[12] = H295R cell line, 0.1-10000 nM, HPLC-MS/MS, Table E3
[13] = continuous tail vein infusion at 2×MIR, LORR maintained 1 hour, Table E4

| Structure (SMILES) | ED50 (rats [1]) | Approximate therapeutic index (rats [2]) | Minimal lethal dose (rats [2]) | Righting reflex duration (rats [3]) | Adverse reactions: Red urine (incidence) (rats [3]) | Onset time (rats [3]) | EC50 ([4]; Homo sapiens, NCI-H295R) | EC50 ([5]; Homo sapiens, NCI-H295R) | recovery time of the test animals' righting reflex (rats [6]) | recovery time of the test animals' righting reflex (rats [8]) | other results |
| --- | --- | --- | --- | --- | --- | --- | --- | --- | --- | --- | --- |
| C[C@H](c1ccccc1)n1cncc1C(=O)OC1(C)COC1 [Compound B28] | 0.1 to 0.5 mg/kg | >13 | >10 mg/kg | 3.32 ± 0.72 min | Red urine (8/8) | 0.29 ± 0.15 min | – | – | – | – | – |
| C[C@H](c1ccccc1)n1cncc1C(=O)OC(C)(C)C#CC#CC(C)(C)O [Compound D38] | – | – | – | – | – | – | > 10 µM | > 10 µM | 3.22 min | 193 s | Corticosterone as an indicator to determine the presence of inhibition [4, 9]: 0; Cortisol as an indicator to determine the presence of inhibition [5, 9]: 0; Onset time (rats [7]; [10]): 3 to 4 min; Recovery time after stopping infusion (rats [7]; [10]): 12 to 14 min; Types and incidence of adverse reactions (rats [7]; [10]): Tremor (5/6) |
| CCCC1(COC(=O)c2cncn2[C@H](C)c2ccccc2)COC1 [Compound B10] | – | – | – | – | – | – | > 1 µM | > 1 µM | 1.35 min | 81 s | Corticosterone as an indicator to determine the presence of inhibition ([4]; H295R, Table B3): 0; Cortisol as an indicator to determine the presence of inhibition ([5]; H295R, Table B3): 0; Recovery time after stopping infusion (rats [7]; after 1 hour infusion at 2×MIR): 9 to 12 min; Adverse reactions: Tremor (incidence) (rats [7]; continuous infusion 2×MIR): Tremor (3/6); Onset time (rats [7]; [11]): 3 to 4 min |
| C[C@H](c1ccccc1)n1cnc(F)c1C(=O)OC1CC1 [Compound E34] | 0.1 to 0.5 mg/kg | >12 | >2 mg/kg | 1.78 ± 1.09 min | (8/8) | 0.29 ± 0.20 min | – | – | – | – | Adverse reactions: Tongue stretching (incidence) (rats [3]): (1/8), |
| CC#CC1(OC(=O)c2c(F)ncn2[C@H](C)c2ccccc2)CSC1 [Compound E91] | 0.5 to 1 mg/kg | >6 | >20 mg/kg | 1.24 ± 0.63 min | (8/8) | 0.48 ± 0.21 min | – | – | – | – | – |
| C=C=CC1(SC(=O)c2cncn2[C@H](C)c2ccccc2)COC1 [Compound D33] | 0.5 to 1 mg/kg | >10 | >8 mg/kg | 0.92 ± 0.33 min | Red urine (8/8) | 0.71 ± 0.22 min | – | – | – | – | – |
| C=CC(CC)(CC)OC(=O)c1cncn1[C@H](C)c1ccccc1 [Compound D24] | 0.5 to 1 mg/kg | >13 | >7 mg/kg | 0.80 ± 0.20 min | Red urine (8/8) | 0.56 ± 0.31 min | – | – | – | – | – |
| CCC1(OC(=O)c2cncn2[C@H](C)c2ccccc2)COC1 [Compound B18] | – | – | – | – | – | – | > 1 µM | > 1 µM | 4.65 min | 279 s | Corticosterone as an indicator to determine the presence of inhibition ([4]; H295R, Table B3): 0; Cortisol as an indicator to determine the presence of inhibition ([5]; H295R, Table B3): 0; Recovery time after stopping infusion (rats [7]; after 1 hour infusion at 2×MIR): 15 to 18 min; Adverse reactions: Tremor (incidence) (rats [7]; continuous infusion 2×MIR): Tremor (4/6); Onset time (rats [7]; [11]): 3 to 4 min |
| C=CC#CC(C)OC(=O)c1cncn1[C@H](C)c1ccccc1 (stereo partly drawn) [Compound D59] | 0.1 to 0.5 mg/kg | >11 | >13 mg/kg | 5.83 ± 1.06 min | Red urine (8/8) | 0.15 ± 0.02 min | – | – | – | – | – |
| C=C(C)CC1(OC(=O)c2cncn2[C@H](C)c2ccccc2)CCC1 [Compound D26] | 0.1 to 0.5 mg/kg | >10 | >4 mg/kg | 1.36 ± 0.52 min | urine (8/8) | 0.56 ± 0.19 min | – | – | – | – | Adverse reactions: Myoclonus (incidence) (rats [3]): Myoclonus (3/8), Red |
| C[C@H](c1ccccc1)n1c(Cl)nc(Cl)c1C(=O)OC1COC1 [Compound E132] | 0.5 to 1 mg/kg | >14 | >10 mg/kg | 2.70 ± 1.15 min | urine (8/8) | 0.18 ± 0.06 min | – | – | – | – | Adverse reactions: Restlessness (incidence) (rats [3]): (2/8), Red |
| [2H]C#CC(C)(C)OC(=O)c1cncn1[C@H](C)c1ccccc1 [Compound D16] | 0.5 to 1 mg/kg | >12 | >6 mg/kg | 1.17 ± 0.98 min | Red urine (8/8) | 0.36 ± 0.19 min | – | – | – | – | – |
| C[C@H](c1ccccc1)n1cnc(F)c1C(=O)OC(C)(C)C [Compound E12] | – | – | – | – | – | – | > 10 µM | > 10 µM | 3.57 min | 214 s | Corticosterone as an indicator to determine the presence of inhibition [4, 12]: 0; Cortisol as an indicator to determine the presence of inhibition [5, 12]: 0; Onset time (rats [7]; [13]): 2 to 3 min; Recovery time after stopping infusion (rats [7]; [13]): 11 to 23 min; Types and incidence of adverse reactions (rats [7]; [13]): Tremor (2/6) |
| CC(OC(=O)c1c(F)ncn1C(C)c1ccccc1)=C1CCCC1=O (stereo not drawn) [Compound E31] | – | – | – | – | – | – | – | – | 1.75 min | 105 s | Corticosterone as an indicator to determine the presence of inhibition [4, 12]: 0; EC50 [4, 12]: > 10 µM; Cortisol as an indicator to determine the presence of inhibition [5, 12]: 0; EC50 [5, 12]: > 10 µM; Onset time (rats [7]; [13]): 3 to 4 min; Recovery time after stopping infusion (rats [7]; [13]): 8 to 11 min; Types and incidence of adverse reactions (rats [7]; [13]): Tremor (3/6) |
| C/C(OC(=O)c1c(Cl)nc(Cl)n1[C@H](C)c1ccccc1)=C1\CCCC1=O [Compound E146] | – | – | – | – | – | – | > 10 µM | > 10 µM | 3.35 min | 201 s | Corticosterone as an indicator to determine the presence of inhibition [4, 12]: 0; Cortisol as an indicator to determine the presence of inhibition [5, 12]: 0 |
| CC#CCOC(=O)c1c(C(F)(F)F)ncn1[C@H](C)c1ccccc1 [Compound E161] | – | – | – | – | – | – | > 10 µM | > 10 µM | 2.33 min | 140 s | Corticosterone as an indicator to determine the presence of inhibition [4, 12]: 0; Cortisol as an indicator to determine the presence of inhibition [5, 12]: 0 |
| C=CCC1(OC(=O)c2cncn2[C@H](C)c2ccccc2)COC1 [Compound D41] | – | – | – | – | – | – | > 10 µM | > 10 µM | 5.92 min | 355 s | Corticosterone as an indicator to determine the presence of inhibition [4, 9]: 0; Cortisol as an indicator to determine the presence of inhibition [5, 9]: 0 |
| C[C@H](c1ccccc1)n1cncc1C(=O)SCC1COC1 [Compound B29] | – | – | – | – | – | – | > 10 µM | > 10 µM | 1.87 min | 112 s | Corticosterone as an indicator to determine the presence of inhibition ([4]; H295R, Table B3): 0; Cortisol as an indicator to determine the presence of inhibition ([5]; H295R, Table B3): 0; Recovery time after stopping infusion (rats [7]; after 1 hour infusion at 2×MIR): 8 to 10 min; Types and incidence of adverse reactions (rats [7]; continuous infusion 2×MIR, in words): No; Onset time (rats [7]; [11]): 2 to 3 min |
